Experimental data as given in ChEMBL document CHEMBL4627407, “Identification of a Potent Oridonin Analogue for Treatment of Triple-Negative Breast Cancer” (J Med Chem, 2020).

Key:
Assay type in all cases: functional, cell-based
DU-4475 = experiment: Antiproliferative activity against human DU4475 cells after 72 hrs by MTT assay; settings: DU-4475, 72 h
HCC1806 = experiment: Antiproliferative activity against human HCC1806 cells after 72 hrs by MTT assay; settings: HCC1806, 72 h
MDA-MB-468 = experiment: Antiproliferative activity against human MDA-MB-468 cells after 72 hrs by MTT assay; settings: MDA-MB-468, 72 h
MDA-MB-231 = experiment: Antiproliferative activity against human MDA-MB-231 cells after 72 hrs by MTT assay; settings: MDA-MB-231, 72 h

Row | Structure (SMILES) | IC50 (DU-4475) [µM] | IC50 (HCC1806) [µM] | IC50 (MDA-MB-468) [µM] | IC50 (MDA-MB-231) [µM]
1 | C=C1C(=O)[C@@]23C(=O)[C@@H]4OC[C@]5(C=CCC(C)(C)[C@@H]45)[C@@H]2CC[C@@H]1[C@H]3OC(=O)c1cccnc1 | 2.62 | 2.73 | 1.37 | 1.07
2 | C=C1C(=O)[C@@]23C(=O)[C@@H]4OC[C@]5(C=CCC(C)(C)[C@@H]45)[C@@H]2CC[C@@H]1[C@H]3OC(=O)c1cnccn1 | 0.71 | 0.73 | 0.76 | 0.53
3 | C=C1C(=O)[C@@]23C(=O)[C@@H]4OC[C@]5(C=CCC(C)(C)[C@@H]45)[C@@H]2CC[C@@H]1[C@H]3OC(=O)/C=C/c1ccc2c(c1)OCO2 | 2.48 | 3.02 | 2.65 | 2.23
4 | C=C1C(=O)[C@@]23C(=O)[C@@H]4OC[C@]5(C=CCC(C)(C)[C@@H]45)[C@@H]2CC[C@@H]1[C@H]3OC(=O)c1ccncc1 | 1.42 | 1.39 | 1.32 | 1.08
5 | C=C1C(=O)[C@@]23C(=O)[C@@H]4OC[C@]5(C=CCC(C)(C)[C@@H]45)[C@@H]2CC[C@@H]1[C@H]3OC(=O)c1ccc(OC)cc1 | 1.89 | 1.71 | 2.02 | 1.3
6 | C=C1C(=O)[C@@]23C(=O)[C@@H]4OC[C@]5(C=CCC(C)(C)[C@@H]45)[C@@H]2CC[C@@H]1[C@H]3OC(=O)/C=C/c1ccnc(Cl)c1 | 1.71 | 2.09 | 1.6 | 1.35
7 | C=C1C(=O)[C@@]23C(=O)[C@@H]4OC[C@]5(C=CCC(C)(C)[C@@H]45)[C@@H]2CC[C@@H]1[C@H]3OC(=O)c1ccccc1 | 8.5 | 7.12 | 8.96 | 7.45
8 | C=C1C(=O)[C@@]23C(=O)[C@@H]4OC[C@]5(C=CCC(C)(C)[C@@H]45)[C@@H]2CC[C@@H]1[C@H]3OC(=O)C1CC1 | 1.06 | 1.73 | 0.99 | 0.76
9 | C=C1C(=O)[C@@]23C(=O)[C@@H]4OC[C@]5(C=CCC(C)(C)[C@@H]45)[C@@H]2CC[C@@H]1[C@H]3OC(=O)c1ccc(S(C)(=O)=O)cc1 | 1.28 | 1.17 | 1.38 | 1.13
10 | C=C1C(=O)[C@@]23C(=O)[C@@H]4OC[C@]5(C=CCC(C)(C)[C@@H]45)[C@@H]2CC[C@@H]1[C@H]3OC(=O)/C=C/c1cncnc1 | 0.62 | 0.77 | 0.84 | 1.08
11 | C=C1C(=O)[C@@]23C(=O)[C@@H]4OC[C@]5(C=CCC(C)(C)[C@@H]45)[C@@H]2CC[C@@H]1[C@H]3OC(=O)C=C(C)C | 2.72 | 3.06 | 2.81 | 2.09
12 | C=C1C(=O)[C@@]23C(=O)[C@@H]4OC[C@]5(C=CCC(C)(C)[C@@H]45)[C@@H]2CC[C@@H]1[C@H]3OC(=O)/C=C/c1ccoc1 | 1.38 | 1.22 | 1.34 | 1.28
13 | C=C1C(=O)[C@@]23C(=O)[C@@H]4OC[C@]5(C=CCC(C)(C)[C@@H]45)[C@@H]2CC[C@@H]1[C@H]3OC(=O)C1CCCCC1 | 2.14 | 2.58 | 2.4 | 1.6
14 | C=C1C(=O)[C@@]23C(=O)[C@@H]4OC[C@]5(CCCC(C)(C)[C@@H]45)[C@@H]2CC[C@@H]1[C@H]3O | 1.56 | 2.05 | 2.29 | 1.74
15 | C=C1C(=O)[C@@]23C(=O)[C@@H]4OC[C@]5(C=CCC(C)(C)[C@@H]45)[C@@H]2CC[C@@H]1[C@H]3OC(C)=O | 0.75 | 1 | 0.79 | 0.96
16 | C=C1C(=O)[C@@]23C(=O)[C@@H]4OC[C@]5(C=CCC(C)(C)[C@@H]45)[C@@H]2CC[C@@H]1[C@H]3OC(=O)/C=C/c1ccccn1 | 0.47 | 0.6 | 1.08 | 1.45
17 | C=C1C(=O)[C@@]23C(=O)C[C@@H]4C(C)(C)CCC[C@@]4(COC(C)=O)[C@@H]2CC[C@@H]1[C@H]3OC(C)=O | 1.81 | 2.87 | 2.49 | 3.66
18 | C=C1C(=O)[C@@]23C(=O)[C@@H]4OC[C@]5(C=CCC(C)(C)[C@@H]45)[C@@H]2CC[C@@H]1[C@H]3OC(=O)/C=C/c1cccnc1 | 0.34 | 0.31 | 0.53 | 0.68
19 | C=C1C(=O)[C@@]23C(=O)[C@@H]4OC[C@]5(C=CCC(C)(C)[C@@H]45)[C@@H]2CC[C@@H]1[C@H]3OC(=O)/C=C/c1ccnc(OC)c1 | 1.63 | 1.93 | 1.75 | 1.42

Row | Structure (SMILES) | IC50 (DU-4475) [µM] | IC50 (HCC1806) [µM] | IC50 (MDA-MB-468) [µM] | IC50 (MDA-MB-231) [µM]
20 | C=C1C(=O)[C@@]23C(=O)[C@@H]4OC[C@]5(C=CCC(C)(C)[C@@H]45)[C@@H]2CC[C@@H]1[C@H]3OC(=O)/C=C/c1ccc(OC)cc1 | 2.32 | 1.96 | 2.29 | 1.31
21 | C=C1C(=O)[C@@]23C(=O)[C@@H](OC(C)=O)[C@@H]4C(C)(C)CC=C[C@@]4(COC(C)=O)[C@@H]2CC[C@@H]1[C@H]3OC(C)=O | 1.9 | 2.42 | 1.66 | 3.71
22 | C=C1C(=O)[C@@]23C(=O)[C@@H]4OC[C@]5(C=CCC(C)(C)[C@@H]45)[C@@H]2CC[C@@H]1[C@H]3OC(=O)/C=C/c1ccc2ccccc2c1 | 2 | 1.78 | 2.25 | 1.47
23 | C=C1C(=O)[C@@]23C(=O)[C@@H]4OC[C@]5(C=CCC(C)(C)[C@@H]45)[C@@H]2CC[C@@H]1[C@H]3OC(=O)c1ccncn1 | 0.85 | 0.74 | 0.85 | 0.64
24 | C=C1C(=O)[C@@]23C(=O)[C@@H]4OC[C@]5(C=CCC(C)(C)[C@@H]45)[C@@H]2CC[C@@H]1[C@H]3O | 0.92 | 0.97 | 0.99 | 1.3
25 | C=C1C(=O)[C@@]23C(=O)[C@@H]4OC[C@]5(C=CCC(C)(C)[C@@H]45)[C@@H]2CC[C@@H]1[C@H]3OC(=O)c1ccc(Cl)cc1 | 1.95 | 1.93 | 1.88 | 1.39
26 | C=C1C(=O)[C@@]23C(=O)[C@@H]4OC[C@]5(C=CCC(C)(C)[C@@H]45)[C@@H]2CC[C@@H]1[C@H]3OC(=O)/C=C/c1ccc(Cl)cc1 | 2.15 | 1.97 | 2.34 | 1.62
27 | C=C1C(=O)[C@@]23C(=O)[C@@H]4OC[C@]5(C=CCC(C)(C)[C@@H]45)[C@@H]2CC[C@@H]1[C@H]3OC(=O)/C=C/c1ccncc1Cl | 0.86 | 0.82 | 0.85 | 0.64
28 | C=C1C(=O)[C@@]23C(=O)[C@@H]4OC[C@]5(C=CCC(C)(C)[C@@H]45)[C@@H]2CC[C@@H]1[C@H]3OC(=O)c1ccc(F)cc1 | 2.05 | 1.65 | 2.05 | 1.41
29 | C=C1C(=O)[C@@]23C(=O)[C@@H]4OC[C@]5(C=CCC(C)(C)[C@@H]45)[C@@H]2CC[C@@H]1[C@H]3OC(=O)/C=C/c1ccc2occc2c1 | 2.4 | 2.05 | 2.44 | 2.16
30 | C=C1C(=O)[C@@]23C(=O)[C@@H]4OC[C@]5(C=CCC(C)(C)[C@@H]45)[C@@H]2CC[C@@H]1[C@H]3OC(=O)/C=C/c1ccnc(F)c1 | 0.94 | 1.12 | 1.03 | 0.7
31 | C=C1C(=O)[C@@]23C(=O)[C@@H]4OC[C@]5(C=CCC(C)(C)[C@@H]45)[C@@H]2CC[C@@H]1[C@H]3OC(=O)CCc1ccccc1 | 1.74 | 1.62 | 1.94 | 1.42
32 | C=C1C(=O)[C@@]23C(=O)[C@@H]4OC[C@]5(C=CCC(C)(C)[C@@H]45)[C@@H]2CC[C@@H]1[C@H]3OC(=O)c1ccccn1 | 0.78 | 0.71 | 1.47 | 1.12
33 | C=C1C(=O)[C@@]23C(=O)[C@@H]4OC[C@]5(C=CCC(C)(C)[C@@H]45)[C@@H]2CC[C@@H]1[C@H]3OC(=O)/C=C/c1ccc(F)cc1 | 1.75 | 1.63 | 1.6 | 1.18
34 | C=C1C(=O)[C@@]23C(=O)[C@@H]4OC[C@]5(C=CCC(C)(C)[C@@H]45)[C@@H]2CC[C@@H]1[C@H]3OC(=O)c1ccc2ncccc2c1 | 2.59 | 2.67 | 2.56 | 2.11
35 | C=C1C(=O)[C@]23[C@H](O)[C@H]1CC[C@H]2[C@]12CCCC(C)(C)[C@H]1C[C@@]3(O)OC2 | 1.88 | 2.92 | 2.45 | 3.44
36 | C=C1C(=O)[C@@]23C(=O)[C@@H]4OC[C@]5(C=CCC(C)(C)[C@@H]45)[C@@H]2CC[C@@H]1[C@H]3OC(=O)/C=C(\C)c1ccccc1 | 2.44 | 1.85 | 1.99 | 1.48
37 | C=C1C(=O)[C@@]23C(=O)[C@@H]4OC[C@]5(C=CCC(C)(C)[C@@H]45)[C@@H]2CC[C@@H]1[C@H]3OC(=O)/C=C/c1ccccc1 | 1.64 | 1.55 | 1.63 | 1.37
38 | C=C1C(=O)[C@@]23C(=O)[C@@H]4OC[C@]5(C=CCC(C)(C)[C@@H]45)[C@@H]2CC[C@@H]1[C@H]3OC(=O)/C=C/c1ccsc1 | 2.82 | 2.74 | 3.07 | 2.18
